From ChEMBL document CHEMBL3217562, “N-Substituted salicylamides as selective malaria parasite dihydroorotate dehydrogenase inhibitors” (Medchemcomm, 2011) come the findings set out here.

The target in experiment [1] is T1, Dihydroorotate dehydrogenase (Plasmodium falciparum) (UniProt Q54A96).
T1 sequence (whole entry): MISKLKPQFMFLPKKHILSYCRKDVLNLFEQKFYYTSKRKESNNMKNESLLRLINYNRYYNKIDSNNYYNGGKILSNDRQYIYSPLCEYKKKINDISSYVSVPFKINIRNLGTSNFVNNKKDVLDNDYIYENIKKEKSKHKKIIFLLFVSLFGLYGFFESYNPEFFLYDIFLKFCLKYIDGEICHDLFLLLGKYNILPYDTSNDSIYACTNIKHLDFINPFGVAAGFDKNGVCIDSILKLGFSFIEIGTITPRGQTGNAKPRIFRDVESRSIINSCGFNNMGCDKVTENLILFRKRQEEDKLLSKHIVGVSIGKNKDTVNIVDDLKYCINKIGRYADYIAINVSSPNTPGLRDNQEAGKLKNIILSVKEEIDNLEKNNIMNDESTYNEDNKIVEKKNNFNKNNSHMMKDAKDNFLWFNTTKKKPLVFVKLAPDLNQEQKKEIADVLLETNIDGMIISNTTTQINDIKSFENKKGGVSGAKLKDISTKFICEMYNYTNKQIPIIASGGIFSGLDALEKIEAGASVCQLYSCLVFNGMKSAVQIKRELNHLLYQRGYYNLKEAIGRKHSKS
The experiment is described as follows: Inhibition of N-terminal truncated Plasmodium falciparum recombinant DHODH assessed as ubiquinone reduction to 2,6-dichloroindophenol at 10 uM by spectrophotometric analysis relative to control.

The target of experiment [2] is T2, Dihydroorotate dehydrogenase (quinone), mitochondrial (Homo sapiens, UniProt Q02127). The experiment can be described thus: Inhibition of N-terminal truncated human recombinant DHODH assessed as ubiquinone reduction to 2,6-dichloroindophenol at 10 uM by spectrophotometric analysis relative to control.
T2 sequence (Q02127 whole entry, the tested form may be a part): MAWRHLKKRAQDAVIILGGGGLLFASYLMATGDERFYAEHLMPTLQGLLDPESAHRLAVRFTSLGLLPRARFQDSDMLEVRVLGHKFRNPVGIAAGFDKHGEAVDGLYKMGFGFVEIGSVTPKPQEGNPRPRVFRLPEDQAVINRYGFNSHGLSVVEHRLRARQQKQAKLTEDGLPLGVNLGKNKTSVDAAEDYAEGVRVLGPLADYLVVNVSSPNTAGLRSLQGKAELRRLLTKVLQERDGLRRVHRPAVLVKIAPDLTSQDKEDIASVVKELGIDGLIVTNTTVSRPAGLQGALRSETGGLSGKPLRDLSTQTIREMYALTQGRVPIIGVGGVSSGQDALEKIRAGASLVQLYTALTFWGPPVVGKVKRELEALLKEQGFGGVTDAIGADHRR
The target in experiment [3] is T2, Dihydroorotate dehydrogenase (quinone), mitochondrial. The experiment is described as follows: Inhibition of N-terminal truncated human recombinant DHODH assessed as ubiquinone reduction to 2,6-dichloroindophenol by spectrophotometric analysis.
Experiment [4] has as its target T3, Dihydroorotate dehydrogenase (Plasmodium falciparum, UniProt Q54A96).
T3 sequence (Q54A96 whole entry): T1 sequence (whole entry)
The experiment is described as follows: Inhibition of N-terminal truncated Plasmodium falciparum recombinant DHODH assessed as ubiquinone reduction to 2,6-dichloroindophenol by spectrophotometric analysis.

The next experiment deals with Plasmodium falciparum. The experiment can be described thus: Antiplasmodial activity against Plasmodium falciparum 3D7 after 48 hrs by [3H]-hypoxanthine incorporation assay. Type of experiment: functional, organism-based.
A short description of experiment [5]: Selectivity ratio of IC50 for N-terminal truncated human recombinant DHODH to IC50 for N-terminal truncated Plasmodium falciparum recombinant DHODH.
Experiment [6] concerns the target T1, Dihydroorotate dehydrogenase (Plasmodium falciparum). The experiment can be described thus: Inhibition of N-terminal truncated Plasmodium falciparum recombinant DHODH assessed as ubiquinone reduction to 2,6-dichloroindophenol at 100 uM by spectrophotometric analysis relative to control.

One may read the inhibition as the drop in the measured response relative to a control, in per cent. `O=C(NCCc1ccccc1)c1c(O)cccc1O`: the results for the inhibition in experiment [1] and in experiment [2] were 17% and 15%, respectively.
The IC50 is the concentration needed to halve the response being measured. For `Cc1ccc(O)c(C(=O)NCC(c2ccccc2)c2ccccc2)c1`, the IC50 in experiment [3] is over 200 µM; in experiment [4], 14.4 µM.
For the compound `COc1cccc(C(=O)NCCc2ccccc2)c1O`, the inhibition in experiment [1] stood at 7%; in experiment [2], 8%.
Turning to `O=Cc1ccc(C(=O)NCC(c2ccccc2)c2ccccc2)c(O)c1`, the IC50 in experiment [3] is over 200 µM; in experiment [4], 16.5 µM.
On the same counts, the results for `O=C(NCC(c1ccccc1)c1ccccc1)c1ccc(Cl)cc1O` are over 200 µM and 10.3 µM.
With `O=C(NCC(c1ccccc1)c1ccccc1)c1c(O)cccc1F`, in experiment [4], the IC50 is over 125 µM.
On to `COc1ccc(C(=O)NCC(c2ccccc2)c2ccccc2)c(O)c1`, for which the values for the concentration for half-maximal inhibition (IC50) in experiment [3] and in experiment [4] were over 200 µM and 14 µM, respectively.
Regarding `O=C(NCC(c1ccccc1)c1ccccc1)c1cccc(CO)c1O`, the IC50 in experiment [3] was over 200 µM; in experiment [4], over 100 µM.
As for `O=C(NCC(c1ccccc1)c1ccccc1)c1ccccc1O`, the IC50 in experiment [3] is over 200 µM; in experiment [4], 21.2 µM. Moreover, the inhibition in experiment [1] turned out to be 38%; in experiment [2] it was 4%.
`O=C(NCC(c1ccccc1)c1ccccc1)c1cccc(F)c1O`: the IC50 is over 200 µM in experiment [3] and 26.1 µM in experiment [4].
For `O=C(NCCCc1ccccc1)c1ccccc1O`, the inhibition stood at 39% in experiment [1] and 7% in experiment [2].
Take `COc1ccc(O)c(C(=O)NCCc2ccccc2)c1`: the inhibition in experiment [1] and in experiment [2] was 8% throughout.
For `O=C(NCC(c1ccccc1)c1ccccc1)c1ccc(CO)cc1O`, the IC50 in experiment [3] is over 200 µM; in experiment [4] it was 46.2 µM.
What is called EC50 is the midpoint of the concentration-response curve. Lower therefore signals higher potency in that assay. `O=C(NCC(c1ccccc1)c1ccccc1)c1cc(Cl)cc(Cl)c1O` gave an EC50 in the experiment with Plasmodium falciparum of 170 µM. In experiment [5], the Ratio IC50 was over 20. Besides, the IC50 was over 200 µM in experiment [3] and 7 µM in experiment [4].
For `CN(CCc1ccccc1)C(=O)c1ccccc1O`, the inhibition in experiment [1] and in experiment [2] was 3% throughout.
Take `O=C(NC(c1ccccc1)c1ccccc1)c1ccccc1O`: the results for the inhibition in experiment [1] and in experiment [2] were 0% and 6%, respectively.
Take `O=C(NCC(c1ccccc1)c1ccccc1)c1cc(Cl)ccc1O`: the response in the experiment with Plasmodium falciparum was half-maximal at 23 µM (EC50). The Ratio IC50 in experiment [5] was 18. The IC50 in experiment [3] was over 200 µM; in experiment [4], 9.1 µM.
Consider `O=C(NCC(c1ccccc1)c1ccccc1)c1cccc(Cl)c1O`, for which the IC50 was over 200 µM in experiment [3] and 44.1 µM in experiment [4].
Consider `O=C(NCCC(c1ccccc1)c1ccccc1)c1ccccc1O`, for which the inhibition in experiment [1] is 22%; in experiment [2], 21%.
On the same counts, the results for `O=C(NCCc1ccccc1)c1ccc(Cl)cc1O` are 16% and 8%.
The compound `O=C(NCC(c1ccccc1)c1ccccc1)c1ccc(F)c(F)c1O` returned an EC50 in the experiment on Plasmodium falciparum of 100 µM. In experiment [5], the Ratio IC50 came to 18. The results for the 50% inhibitory concentration (IC50) in experiment [3] and in experiment [4] were 130 µM and 9.9 µM, respectively.
Turning to `O=C(NCC(c1ccccc1)c1ccccc1)c1cc(CO)ccc1O`, the response in the experiment with Plasmodium falciparum was half-maximal at 53 µM (EC50). Also, the Ratio IC50 in experiment [5] worked out at 18. Also, the IC50 was over 200 µM in experiment [3] and 8 µM in experiment [4].
With `CC(CNC(=O)c1ccccc1O)c1ccccc1` (racemic), the inhibition is 20% in experiment [1] and 4% in experiment [2].
On the same counts, the results for `O=C(NCCc1ccccc1)c1cccc(Cl)c1O` are 10% and 8%.
For the compound `COc1ccc(C(=O)NCCc2ccccc2)c(O)c1`, the values for the inhibition in experiment [1] and in experiment [2] were 9% and 5%, respectively.
As to `O=C(NCCc1ccccc1)c1cc(Cl)ccc1O`, the inhibition in experiment [1] turned out to be 23%; in experiment [2], 6%.
For the compound `COc1cccc(C(=O)NCC(c2ccccc2)c2ccccc2)c1O`, the IC50 in experiment [3] was over 200 µM; in experiment [4], over 500 µM.
Take `O=C(NCCc1ccccc1)c1cc([N+](=O)[O-])ccc1O`: the inhibition in experiment [1] stood at 5%; in experiment [2] it was 26%.
As for `O=C(NCc1ccccc1)c1ccccc1O`, the inhibition came out at 16% in experiment [1] and 4% in experiment [2].
Consider `O=C(NCCc1ccccc1)c1ccccc1O`, for which the inhibition came to 21% in experiment [1], 6% in experiment [2] and 53% in experiment [6].
Turning to `O=C(NCC(c1ccccc1)c1ccccc1)c1cc(Br)ccc1O`, the IC50 was over 200 µM in experiment [3] and 10.8 µM in experiment [4].
As to `Cc1ccc(O)c(C(=O)NCCc2ccccc2)c1`, the values for the inhibition in experiment [1] and in experiment [2] were 16% and 4%, respectively.
As to `COc1ccc(O)c(C(=O)NCC(c2ccccc2)c2ccccc2)c1`, the IC50 was over 200 µM in experiment [3] and 18.1 µM in experiment [4].
On to `COc1cccc(O)c1C(=O)NCC(c1ccccc1)c1ccccc1`, for which, in experiment [4], the IC50 is over 125 µM.
